Patent US8901118B2, “Compounds and methods for kinase modulation, and indications therefor” (Plexxikon Inc., priority 2010, dated 2014)

Test system: MV-4-11 cells
Test: MV-4-11 (leukemia) cell proliferation assay (ATPlite)
Format: cell-based
Conditions: Homo sapiens, MV4-11, read-out: Inhibition of Cell Proliferation IC50, MV-4-11
Procedure: Compounds are assessed in a variety of cell based assays. For example BaF3 cells engineered with any of BCR-FMS, BCR-KIT, BCR-FLT3, BCR-NTRK1, BCR-NTRK2, and BCR-NTRK3, are used in cell proliferation assays to assess inhibitory activity of Fms, Kit, Flt-3, TrkA, TrkB, and TrkC, respectively. An MV-4-11 (leukemia) cell proliferation assay is used to assess inhibitory activity in Flt-3, and SKNSH (human neuroblastoma) cell proliferation assay is used to assess efficacy of Fms/Trk inhibitors. Additional cells may be assayed similarly to assess the efficacy of Fms/Trk inhibitors, such as MiaPaCa (human pancreatic cancer) and Capan-1 (human pancreatic carcinoma) cells. Reagent and assay conditions are as follows: • BaF3 cells: • Maintained in RPMI containing 10% FBS, 1% PenStrep, 1% NEAA, and 1% L-Glutamine, supplemented with 1 mg/mL G418 and 5% WEHI-CM (or recombinant murine IL-3). • Confluent cells are split 1:50 to 1:100 every 3-4 days. • MV-4-11 cells: • Maintained in Iscove's Modified Dulbecco's Medium containing 10% FBS. • Confluent cells are split 1:4 every 3-4 days. • SKNSH cells: RPMI containing 10% FBS. On day 1, cells are counted, then centrifuged in a conical tube for 5 minutes at 1000 rpm. The supernatant is removed and cells are re-suspended as follows: • BaF3: resuspend in growth media +1 mg/mL G418 (without WEHFIL-3) to 2×10^5 cells/mL. • MV-4-11: resuspend in growth media to 5×10^5 cells/mL. • SKNSH: resuspend in growth media to 2×10^4 cells/mL. The cells are plated (50 μL, 150 μL for SKNSH cells) in each well of a 96-well dish (Corning 3610) and incubated at 37° C. in 5% CO2 overnight, cells plated to a final concentration of cells as follows: • BaF3: 10,000 cells per well. • MV-4-11: 25,000 cells per well. • SKNSH: 3,000 cells per well. On day 2, compound at a maximum concentration of 5 mM is serially diluted 1:3 for a total of 8 point titration with DMSO as a control. A 1 μL aliquot of each dilution point is added to 249 μL growth media and 50 μL is added to a well containing cells, providing 10 μM compound for the maximum concentration point. The cells are incubated for 3 days at 37° C. in 5% CO2. For SKNSH cells, a 0.75 μL aliquot of appropriate dilution in DMSO is added to 150 μL of cells. On day 5, ATPlite 1 step Luminescence Assay System (Perkin Elmer #6016739) is brought to room temperature along with the cell cultures. ATPlite is added to each well as follows: • BaF3: 25 μL per well. • MV-4-11: 40 μL per well. • SKNSH: 20 μL per well. The cells are incubated at room temperature for 10 minutes, then luminescence is read on Safire reader. The measured luminescence correlates directly with cell number, such that the reading as a function of compound concentration is used to determine the IC50 value.
It is understood that the results of these assays may vary as assay conditions are varied. Inhibition levels determined under the conditions described herein represent a relative activity for the compounds tested under the specific conditions employed. The cell based assays are likely to show variability due to the complexity of the system and the sensitivity thereof to any changes in the assay conditions. […] Results for compounds that are tested and show substantially no inhibition below the highest tested concentration are represented as “-” in the tables below. In some instances, the compounds were not tested in all of the assays, or assay results were not valid, as indicated by NA in the tables below.

IC50: < 10 µM
Compound: Fc1nc(NC2CCC(F)(F)CC2)ccc1Cc1c[nH]c2ncc(Cl)cc12 [Compound P-3013, [5-(5-Chloro-1H-pyrrolo[2,3-b]pyridin-3-ylmethyl)-6-fluoro-pyridin-2-yl]-(4,4-difluoro-cyclohexyl)-amine]
